Results reported in ChEMBL document CHEMBL1201862, “PubChem BioAssay data set” (2004).
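Protocol summary: plate cells (96-well), add compound at 5 concentrations, incubate 48 h, interpolate endpoints linearly. At the GI50, growth is halved.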 Activity calls are given as the source filed them. Cut-off read from the data, not from the text of the source: active = GI50 up to about 1.1 µM and inactive = higher.

Legend:
Assay in all cases: inhibition of tumour cell growth, NCI panel, 48 h
A549 = tested on: A549
SNB-19 = tested on: SNB-19
SK-MEL-5 = tested on: SK-MEL-5
Malme-3M = tested on: Malme-3M
NCI-H23 = tested on: NCI-H23
SW-620 = tested on: SW-620
DU-145 = tested on: DU-145
COLO 205 = tested on: COLO 205
CAKI-1 = tested on: CAKI-1
SR = tested on: SR
SF-268 = tested on: SF-268
LOX IMVI = tested on: LOX IMVI
MDA-MB-231 = tested on: MDA-MB-231
HCT-116 = tested on: HCT-116
CCRF-CEM = tested on: CCRF-CEM
T47D = tested on: T47D
PC-3 = tested on: PC-3
EKVX = tested on: EKVX
HL-60 = tested on: HL-60
M14 = tested on: M14
Hs-578T = tested on: Hs-578T
UO-31 = tested on: UO-31
K562 = tested on: K562
HOP-92 = tested on: HOP-92
NCI-H226 = tested on: NCI-H226
OVCAR-4 = tested on: OVCAR-4
UACC-257 = tested on: UACC-257
OVCAR-8 = tested on: OVCAR-8
RXF 393 = tested on: RXF 393
786-0 = tested on: 786-0
OVCAR-5 = tested on: OVCAR-5
NCI/ADR-RES = tested on: NCI/ADR-RES
SK-MEL-2 = tested on: SK-MEL-2
OVCAR-3 = tested on: OVCAR-3
SK-MEL-28 = tested on: SK-MEL-28
SN12C = tested on: SN12C
HT-29 = tested on: HT-29
RPMI-8226 = tested on: RPMI-8226
NCI-H522 = tested on: NCI-H522
SNB-75 = tested on: SNB-75
TK-10 = tested on: TK-10
U-251 = tested on: U-251
MDA-N = tested on: MDA-N
NCI-H460 = tested on: NCI-H460
IGROV-1 = tested on: IGROV-1
SF-295 = tested on: SF-295
MDA-MB-435 = tested on: MDA-MB-435
MOLT-4 = tested on: MOLT-4
HCT-15 = tested on: HCT-15
KM12 = tested on: KM12
MCF7 = tested on: MCF7
A498 = tested on: A498
UACC-62 = tested on: UACC-62
ACHN = tested on: ACHN
HOP-62 = tested on: HOP-62
SF-539 = tested on: SF-539

CCOC(=O)NC(C(C(=O)OCC)C(=O)OCC)(C(F)(F)F)C(F)(F)F
GI50 (A549): > 100 µM (inactive)
GI50 (SNB-19): > 100 µM (inactive)
GI50 (SK-MEL-5): > 100 µM (inactive)
GI50 (Malme-3M): > 100 µM (inactive)
GI50 (NCI-H23): > 100 µM (inactive)
GI50 (SW-620): > 100 µM (inactive)
GI50 (DU-145): > 100 µM (inactive)
GI50 (COLO 205): > 100 µM (inactive)
GI50 (CAKI-1): > 100 µM (inactive)
GI50 (SR): > 100 µM (inactive)
GI50 (SF-268): > 100 µM (inactive)
GI50 (LOX IMVI): > 100 µM (inactive)
GI50 (MDA-MB-231): > 100 µM (inactive)
GI50 (HCT-116): > 100 µM (inactive)
GI50 (CCRF-CEM): > 100 µM (inactive)
GI50 (T47D): > 100 µM (inactive)
GI50 (PC-3): > 100 µM (inactive)
GI50 (EKVX): > 100 µM (inactive)
GI50 (HL-60): > 100 µM (inactive)
GI50 (M14): > 100 µM (inactive)
GI50 (Hs-578T): > 100 µM (inactive)
GI50 (UO-31): > 100 µM (inactive)
GI50 (K562): > 100 µM (inactive)
GI50 (HOP-92): > 100 µM (inactive)
GI50 (NCI-H226): > 100 µM (inactive)
GI50 (OVCAR-4): > 100 µM (inactive)
GI50 (UACC-257): > 100 µM (inactive)
GI50 (OVCAR-8): > 100 µM (inactive)
GI50 (RXF 393): > 100 µM (inactive)
GI50 (786-0): > 100 µM (inactive)
GI50 (OVCAR-5): > 100 µM (inactive)
GI50 (NCI/ADR-RES): > 100 µM (inactive)
GI50 (SK-MEL-2): > 100 µM (inactive)
GI50 (OVCAR-3): > 100 µM (inactive)
GI50 (SK-MEL-28): > 100 µM (inactive)
GI50 (SN12C): > 100 µM (inactive)
GI50 (HT-29): > 100 µM (inactive)
GI50 (RPMI-8226): > 100 µM (inactive)
GI50 (NCI-H522): > 100 µM (inactive)
GI50 (SNB-75): > 100 µM (inactive)
GI50 (TK-10): > 100 µM (inactive)
GI50 (U-251): > 100 µM (inactive)
GI50 (MDA-N): > 100 µM (inactive)
GI50 (NCI-H460): > 100 µM (inactive)
GI50 (IGROV-1): > 100 µM (inactive)
GI50 (SF-295): > 100 µM (inactive)
GI50 (MDA-MB-435): > 100 µM (inactive)
GI50 (MOLT-4): > 100 µM (inactive)
GI50 (HCT-15): > 100 µM
GI50 (KM12): > 100 µM (inactive)
GI50 (MCF7): > 100 µM (inactive)
GI50 (A498): > 100 µM (inactive)
GI50 (UACC-62): > 100 µM (inactive)
GI50 (ACHN): > 100 µM (inactive)
GI50 (HOP-62): > 100 µM (inactive)
GI50 (SF-539): > 100 µM (inactive)
